ChEMBL document CHEMBL2057164, “Head-to-head prenyl tranferases: anti-infective drug targets” (J Med Chem, 2012)
pKi: −log10 of the molar value.

Assay: Inhibition of Trypanosoma cruzi squalene synthase

pKi: 5.92
SMILES: CC(C)=CCC/C(C)=C/CNCCNC1C2CC3CC(C2)CC1C3 (stereo unspecified) [SQ109]
